Here are results for 12 molecules from PubChem BioAssay (NCI).

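Method: 48-hour compound exposure of cells in 96-well plates, five concentrations, linear interpolation of endpoints. At the TGI there is no net growth.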

Among the test systems are CCRF-CEM leukemia; HOP-62 NSCLC; KM12 colon; LOX IMVI melanoma; MDA-N; NCI/ADR-RES ovarian; OVCAR-8 ovarian; SF-295 CNS; SK-MEL-5 melanoma; SR leukemia.
What all share (assay): NCI-60 cell line screen, 48 h

With `C[C@H]1[C@H](C)CC[C@]2(C(=O)OC3OC(CO)C(O)C(O)C3O)CC[C@]3(C)C(=CC[C@@H]4[C@@]5(C)C[C@@H](O)[C@@H]6OC(=O)c7cc(O)c(O)c(O)c7-c7c(cc(O)c(O)c7O)C(=O)OC[C@@]6(CO)[C@@H]5CC[C@]43C)[C@H]12` (stereo not given in full), the TGI in the assay on CCRF-CEM leukemia is 98.7 µM; in the assay on HOP-62 NSCLC, more than 100 µM; in the assay on KM12 colon it was more than 100 µM; in the assay with LOX IMVI melanoma, 35.9 µM; in the assay on MDA-N, 51.4 µM; in the assay with NCI/ADR-RES ovarian, more than 100 µM. Also, the TGI with OVCAR-8 ovarian, in the assay on SF-295 CNS, in the assay with SK-MEL-5 melanoma and with SR leukemia was more than 100 µM in each case.
Take `CC(=O)Oc1ccn2nc(C)c(Br)c2c1`: the TGI in the assay with CCRF-CEM leukemia, in the assay with HOP-62 NSCLC, in the assay on KM12 colon, with LOX IMVI melanoma, with MDA-N and in the assay with NCI/ADR-RES ovarian was more than 100 µM in each case. Also, the TGI in the assay with OVCAR-8 ovarian, with SF-295 CNS, with SK-MEL-5 melanoma and in the assay with SR leukemia was more than 100 µM each time.
As for `CCOC(=O)/C=C/CCC(C)(C)COC(C)=O`, the TGI in the assay with CCRF-CEM leukemia, in the assay on HOP-62 NSCLC, in the assay with KM12 colon, with LOX IMVI melanoma, with MDA-N and with NCI/ADR-RES ovarian was more than 10 µM each time. The TGI in the assay with OVCAR-8 ovarian, in the assay on SF-295 CNS, with SK-MEL-5 melanoma and with SR leukemia was more than 10 µM throughout.
Turning to `NC(=O)c1ccc[n+](C2=C([O-])c3ccccc3C(=O)/C2=N\S(=O)(=O)c2ccccc2)c1`, the TGI in the assay with CCRF-CEM leukemia is more than 100 µM; in the assay on HOP-62 NSCLC, 33 µM; in the assay with KM12 colon it was 26.7 µM; in the assay on LOX IMVI melanoma, 29.5 µM; in the assay with MDA-N it was 31 µM; in the assay on NCI/ADR-RES ovarian, 36.3 µM. The TGI is 28.4 µM in the assay with OVCAR-8 ovarian, 31.5 µM in the assay with SF-295 CNS, 21.3 µM in the assay on SK-MEL-5 melanoma and more than 100 µM in the assay on SR leukemia.
For the molecule `Cc1cccc2c1CC(Cc1ccccc1C(=O)O)C2=O` (stereo not given), the TGI in the assay with CCRF-CEM leukemia, in the assay with HOP-62 NSCLC, in the assay with KM12 colon, in the assay with LOX IMVI melanoma, in the assay on MDA-N and in the assay on NCI/ADR-RES ovarian was more than 100 µM throughout. Besides, the TGI in the assay on OVCAR-8 ovarian, in the assay on SF-295 CNS, in the assay with SK-MEL-5 melanoma and in the assay with SR leukemia was more than 100 µM throughout.
For the molecule `COc1ccc([C@]23CCC4(OCC(C)(C)CO4)[C@H]4CON(O[C@H](O[C@@H]5CCCCC5C(C)(C)c5ccccc5)C2)[C@@H]43)cc1OC` (stereo not given in full), the TGI with CCRF-CEM leukemia, with HOP-62 NSCLC, in the assay with KM12 colon, in the assay with LOX IMVI melanoma, with MDA-N and in the assay with NCI/ADR-RES ovarian was more than 100 µM in each case. For the same molecule, the TGI was more than 100 µM in the assay with OVCAR-8 ovarian, more than 100 µM in the assay on SF-295 CNS, 45.4 µM with SK-MEL-5 melanoma and 49.4 µM in the assay with SR leukemia.
For `O=c1c2ccc(Cl)cc2oc2c(CNc3ccc(S(=O)(=O)Nc4ncccn4)cc3)cccc12`, the TGI in the assay with CCRF-CEM leukemia, in the assay on HOP-62 NSCLC, with KM12 colon, in the assay with LOX IMVI melanoma, in the assay with MDA-N and in the assay on NCI/ADR-RES ovarian was more than 100 µM throughout. For the same molecule, the TGI in the assay on OVCAR-8 ovarian, with SF-295 CNS, in the assay with SK-MEL-5 melanoma and in the assay on SR leukemia was more than 100 µM in each case.
For `N#C/C(C(=O)NCc1ccccc1)=C(/N)N1CCCC1`, the TGI in the assay on CCRF-CEM leukemia, in the assay with HOP-62 NSCLC, in the assay on KM12 colon, with LOX IMVI melanoma, in the assay with MDA-N and in the assay on NCI/ADR-RES ovarian was more than 100 µM in each case. Also, the TGI with OVCAR-8 ovarian, in the assay with SF-295 CNS, in the assay on SK-MEL-5 melanoma and in the assay with SR leukemia was more than 100 µM each time.
With `O=C([C@H](O)[C@@H](O)c1cccc(Cl)c1)C12CC3CC(CC(C3)C1)C2`, the TGI in the assay with CCRF-CEM leukemia is more than 100 µM; in the assay with HOP-62 NSCLC, 7.9 µM; in the assay on KM12 colon it was 6.01 µM; in the assay on LOX IMVI melanoma, 2.65 µM; in the assay on MDA-N, 5.92 µM; with NCI/ADR-RES ovarian, 5.52 µM. The TGI in the assay on OVCAR-8 ovarian was 4.69 µM; with SF-295 CNS, 11.4 µM; with SK-MEL-5 melanoma, 14.8 µM; in the assay with SR leukemia it was more than 100 µM.
For `CNC(=S)N1CCN(C(C)=O)C1=S`, the TGI with CCRF-CEM leukemia, with HOP-62 NSCLC, in the assay on KM12 colon, with LOX IMVI melanoma, in the assay on MDA-N and with NCI/ADR-RES ovarian was more than 100 µM throughout. Moreover, the TGI with OVCAR-8 ovarian, in the assay with SF-295 CNS, in the assay with SK-MEL-5 melanoma and with SR leukemia was more than 100 µM throughout.
Take `CS(=O)(=O)Nc1ccc2ccccc2c1`: the TGI with CCRF-CEM leukemia, in the assay on HOP-62 NSCLC, with KM12 colon, in the assay on LOX IMVI melanoma, in the assay with MDA-N and with NCI/ADR-RES ovarian was more than 100 µM each time. The TGI in the assay with OVCAR-8 ovarian, with SF-295 CNS, in the assay on SK-MEL-5 melanoma and with SR leukemia was more than 100 µM throughout.
Consider `O=C(Nc1nn(C(=O)c2cccnc2)c(=O)s1)c1ccc(Cl)cc1`, for which the TGI with CCRF-CEM leukemia, in the assay on HOP-62 NSCLC, in the assay on KM12 colon, in the assay on LOX IMVI melanoma, with MDA-N and with NCI/ADR-RES ovarian was more than 100 µM in each case. For the same molecule, the TGI with OVCAR-8 ovarian, in the assay with SF-295 CNS, in the assay on SK-MEL-5 melanoma and with SR leukemia was more than 100 µM each time.
